# From patent US20120029187A1, “HALOALKYLSULFONANILIDE DERIVATIVE” (Nissan Chemical Industries, Ltd., priority 2009, published 2012)
# What was measured:
# Assay type in all cases: in vivo
# [1] = tested on: ducksalad; assay: Test Example 2: herbicidal effects during the vegetation period under submerged conditions; settings: treatment during the vegetation period under submerged conditions; dose 2.52 g/a
# Procedure, shortened: (§1)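 Barnyardgrass, bulrush and ducksalad were co-sown in alluvial soil flooded to 4 cm and grown in a greenhouse at 25 to 30° C. At the 1- or 2-leaf stage, water-diluted emulsifiable concentrates went onto the water surface at set doses (g/a). Herbicidal effect was scored three weeks later on a graded scale.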
# [2] = tested on: barnyardgrass; assay: as above; settings: treatment during the vegetation period under submerged conditions; dose 2.52 g/a
# Procedure, shortened: as §1
# [3] = tested on: bulrush; assay: as above; settings: treatment during the vegetation period under submerged conditions; dose 2.52 g/a
# Procedure, shortened: as §1
# [4] = tested on: ducksalad; assay: Test Example 1: herbicidal effects in preemergence treatment under submerged conditions; settings: dose 2.52 g/a
# Procedure, shortened: (§2)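 Score 0–5 by mortality (5: ≥90%; 0: <5%), read 3 weeks post-application. Paddy-type cups: alluvial soil under 4 cm water, weeds seeded plus transplanted 2.5-leaf rice; diluted EC dosed onto water surface same day as sowing, g/a basis; greenhouse 25 to 30° C.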
# [5] = tested on: barnyardgrass; assay: as above; settings: dose 2.52 g/a
# Procedure, shortened: as §2
# [6] = tested on: bulrush; assay: as above; settings: dose 2.52 g/a
# Procedure, shortened: as §2
# [7] = tested on: Italian ryegrass; assay: Test Example 3: herbicidal effects in soil treatment; settings: dose 3.2 g/a
# Procedure, shortened: (§3)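 Seeds were sown in sterilized diluvial soil and covered with about 1.5 cm of soil. Compounds, formulated as emulsifiable concentrates and diluted with water, were sprayed evenly over the soil surface at set doses in g/a. Herbicidal effect was scored on a rating scale three weeks later.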
# [8] = tested on: redroot pigweed; assay: as above; settings: dose 3.2 g/a
# Procedure, shortened: as §3
# [9] = tested on: common ragweed; assay: as above; settings: dose 3.2 g/a
# Procedure, shortened: as §3
# [10] = tested on: common lambsquater; assay: as above; settings: dose 3.2 g/a
# Procedure, shortened: as §3
# [11] = tested on: common chickweed; assay: as above; settings: dose 3.2 g/a
# Procedure, shortened: as §3
# [12] = tested on: water foxtail; assay: as above; settings: dose 3.2 g/a
# Procedure, shortened: as §3
# [13] = tested on: large crabgrass; assay: as above; settings: dose 3.2 g/a
# Procedure, shortened: as §3
# [14] = tested on: giant foxtail; assay: as above; settings: dose 3.2 g/a
# Procedure, shortened: as §3
# [15] = tested on: wild oat; assay: as above; settings: dose 3.2 g/a
# Procedure, shortened: as §3
# [16] = tested on: barnyardgrass; assay: as above; settings: dose 3.2 g/a
# Procedure, shortened: as §3
# [17] = tested on: velvetleaf; assay: as above; settings: dose 3.2 g/a
# Procedure, shortened: as §3
# [18] = tested on: Italian ryegrass; assay: Test Example 4: herbicidal effect in foliage treatment; settings: dose 3.2 g/a, three weeks after application
# Procedure, shortened: (§4)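 Foliar spray, post-emergence: 14-day-old greenhouse plants (25–30° C, diluvial soil) treated with water-diluted EC at set g/a doses; visual herbicidal score at 3 wk post-application.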
# [19] = tested on: beadstraw; assay: as above; settings: dose 3.2 g/a, three weeks after application
# Procedure, shortened: as §4
# [20] = tested on: redroot pigweed; assay: as above; settings: dose 3.2 g/a, three weeks after application
# Procedure, shortened: as §4
# [21] = tested on: common ragweed; assay: as above; settings: dose 3.2 g/a, three weeks after application
# Procedure, shortened: as §4
# [22] = tested on: common lambsquater; assay: as above; settings: dose 3.2 g/a, three weeks after application
# Procedure, shortened: as §4
# [23] = tested on: common chickweed; assay: as above; settings: dose 3.2 g/a, three weeks after application
# Procedure, shortened: as §4
# [24] = tested on: water foxtail; assay: as above; settings: dose 3.2 g/a, three weeks after application
# Procedure, shortened: as §4
# [25] = tested on: large crabgrass; assay: as above; settings: dose 3.2 g/a, three weeks after application
# Procedure, shortened: as §4
# [26] = tested on: giant foxtail; assay: as above; settings: dose 3.2 g/a, three weeks after application
# Procedure, shortened: as §4
# [27] = tested on: wild oat; assay: as above; settings: dose 3.2 g/a, three weeks after application
# Procedure, shortened: as §4
# [28] = tested on: barnyardgrass; assay: as above; settings: dose 3.2 g/a, three weeks after application
# Procedure, shortened: as §4
# [29] = tested on: velvetleaf; assay: as above; settings: dose 3.2 g/a, three weeks after application
# Procedure, shortened: as §4
# [30] = tested on: posumbu knotweed; assay: as above; settings: dose 3.2 g/a, three weeks after application
# Procedure, shortened: as §4
smiles,measurement,setting,value
CC1CN(Cc2ccccc2N(C(=O)OCCCl)S(=O)(=O)C(F)(F)F)C(=O)CO1 (stereo not drawn) [Compound I-8],"C: ducksalad, herbicidal effect (evaluation scale 0-5)",[1],5 (mortality of 90% or above (nearly complete death))
same,"A: barnyardgrass, herbicidal effect (evaluation scale 0-5)",[2],5 (mortality of 90% or above (nearly complete death))
same,"B: bulrush, herbicidal effect (evaluation scale 0-5)",[3],5 (mortality of 90% or above (nearly complete death))
same,"C: ducksalad, herbicidal effect (evaluation scale 0-5)",[4],5 (mortality of 90% or above (nearly complete death))
same,"A: barnyardgrass, herbicidal effect (evaluation scale 0-5)",[5],5 (mortality of 90% or above (nearly complete death))
same,"B: bulrush, herbicidal effect (evaluation scale 0-5)",[6],5 (mortality of 90% or above (nearly complete death))
same,"H: Italian ryegrass, herbicidal effect (evaluation scale 0-5)",[7],5 (mortality of 90% or above (nearly complete death))
same,"K: redroot pigweed, herbicidal effect (evaluation scale 0-5)",[8],5 (mortality of 90% or above (nearly complete death))
same,"J: common ragweed, herbicidal effect (evaluation scale 0-5)",[9],5 (mortality of 90% or above (nearly complete death))
same,"L: common lambsquater, herbicidal effect (evaluation scale 0-5)",[10],3 (mortality of at least 40% and less than 70%)
same,"N: common chickweed, herbicidal effect (evaluation scale 0-5)",[11],5 (mortality of 90% or above (nearly complete death))
same,"G: water foxtail, herbicidal effect (evaluation scale 0-5)",[12],5 (mortality of 90% or above (nearly complete death))
same,"D: large crabgrass, herbicidal effect (evaluation scale 0-5)",[13],5 (mortality of 90% or above (nearly complete death))
same,"E: giant foxtail, herbicidal effect (evaluation scale 0-5)",[14],4 (mortality of at least 70% and less than 90%)
same,"F: wild oat, herbicidal effect (evaluation scale 0-5)",[15],1 (mortality of at least 5% and less than 20%)
same,"A: barnyardgrass, herbicidal effect (evaluation scale 0-5)",[16],5 (mortality of 90% or above (nearly complete death))
same,"I: velvetleaf, herbicidal effect (evaluation scale 0-5)",[17],5 (mortality of 90% or above (nearly complete death))
same,"H: Italian ryegrass, herbicidal effect",[18],4 (mortality of at least 70% and less than 90%)
same,"O: beadstraw, herbicidal effect",[19],4 (mortality of at least 70% and less than 90%)
same,"K: redroot pigweed, herbicidal effect",[20],4 (mortality of at least 70% and less than 90%)
same,"J: common ragweed, herbicidal effect",[21],5 (mortality of 90% or above (nearly complete death))
same,"L: common lambsquater, herbicidal effect",[22],2 (mortality of at least 20% and less than 40%)
same,"N: common chickweed, herbicidal effect",[23],3 (mortality of at least 40% and less than 70%)
same,"G: water foxtail, herbicidal effect",[24],5 (mortality of 90% or above (nearly complete death))
same,"D: large crabgrass, herbicidal effect",[25],4 (mortality of at least 70% and less than 90%)
same,"E: giant foxtail, herbicidal effect",[26],4 (mortality of at least 70% and less than 90%)
same,"F: wild oat, herbicidal effect",[27],1 (mortality of at least 5% and less than 20%)
same,"A: barnyardgrass, herbicidal effect",[28],5 (mortality of 90% or above (nearly complete death))
same,"I: velvetleaf, herbicidal effect",[29],5 (mortality of 90% or above (nearly complete death))
same,"M: posumbu knotweed, herbicidal effect",[30],5 (mortality of 90% or above (nearly complete death))
